Measurements published in patent publication US20250280827A1, “An antifungal composition comprising natamycin and at least one insecticide” (priority 2021, published 2025).

Tested on: Colletotrichum spp.
Assay: Antifungal effect against Colletotrichum infection on wounded skin of pepper fruits (Colby synergy)
Type: in vivo
Source text: wherein X and Y are the observed antifungal activities (in %) of the individual active ingredients x and y, respectively. If the observed antifungal activity (O in %) of the combination exceeds the expected antifungal activity (E in %) of the combination and the synergy factor O/E is thus >1.0, the combined application of the active ingredients leads to a synergistic antifungal effect. […]
For the treatment, 5 wounds per pepper side were done as previously described. In addition, one wound was done as negative control. Depending on the number of sides of the pepper, 3 to 4 treatments were done per paprika. Per wound 10 μl of treatment was placed on the wound. The treatments were let to dry in a down flow cabinet for about 30 minutes. After drying 5 μl spore suspension at a concentration of 10^7 spores per ml were placed on the wounds. The fungus was isolated from Colletotrichum-infected plant material and identified using techniques known to the person skilled in the art. The pepper were placed as described previously in a transparent container, with the difference that the containers were then placed in a transparent plastic zipper bag. The bags with peppers were placed at room temperature and in the dark for two days. After that the size of the lesions were measured. Assessment of the infection area was 4 days after inoculation. Experiment was performed in 5-fold.
(§1) The fungus was isolated from Colletotrichum-infected plant material and identified using techniques known to the person skilled in the art. Assessment of the infection area was performed 5 days after inoculation. Experiment was performed in 5-fold.
as §1, with “The active ingredient imidacloprid was formulated as described in Table 2. Imidacloprid belonging to IRAC Group 4. The” for “The”
The fungus was isolated from Colletotrichum-infected plant material and identified using techniques known to the person skilled in the art. Assessment of the efficacy was 5 days after inoculation. Experiment was performed in 5-fold.
The fungus was isolated from Colletotrichum-infected plant material and identified using techniques known to the person skilled in the art. Assessment of the infection area was performed 6 days after inoculation. Experiment was performed in 5-fold.
The fungus was isolated from Colletotrichum-infected plant material and identified using techniques known to the person skilled in the art. Assessment of the infection area was performed 4 days after inoculation. Experiment was performed in 5-fold.

[1] = natamycin-insecticide 1:0 ppm, 4 days after inoculation, Table 13
[2] = natamycin-insecticide 1:0 ppm, 5 days after inoculation, Table 15
[3] = natamycin-insecticide 1:0 ppm, 5 days after inoculation, Table 16
[4] = natamycin-insecticide 1:0 ppm, 5 days after inoculation, Table 17
[5] = natamycin:abamectin 1:0 ppm, 4 days after inoculation, Table 20
[6] = natamycin:fipronil 1:0 ppm, 6 days after inoculation, Table 19

## C[C@@H]1C/C=C/C=C/C=C/C=C/[C@H](O[C@@H]2O[C@H](C)[C@@H](O)[C@H](N)[C@@H]2O)C[C@@H]2O[C@](O)(C[C@@H](O)C[C@H]3O[C@@H]3/C=C/C(=O)O1)C[C@H](O)[C@H]2C(=O)O [natamycin]
[1]
  Avg infected area: 10.6 mm2
  Observed antifungal activity: 33.8%
[2]
  Avg infected area: 30.2 mm2
  Observed antifungal activity: 28.6%
[3]
  Avg infected area: 30.2 mm2
  Observed antifungal activity: 28.6%
[4]
  Avg infected area: 22.4 mm2
  Observed antifungal activity: 59.5%
[5]
  Avg infected area: 13.5 mm2
  Observed antifungal activity: 39.8%
[6]
  Avg infected area: 24.7 mm^2
  Observed antifungal activity: 50.7%
